Patent US8592396B2, “Glucokinase activators and methods of using same” (Bristol-Myers Squibb Company, priority 2010, dated 2013)

Tests used:
[1] = molecular target: T1, Human Glucokinase (Homo sapiens, UniProt P35557); assay: Glucokinase tandem enzymatic assay; format: biochemical; details: 12 mM glucose; for Emax: expressed as a % of basal activation, read-out: Maximal activation (%) Human Glucokinase @ 12 mM Glucose
T1 construct: Full-length human hepatic GK (untagged) was expressed; made in house; host or cells: E. coli BL21 STAR (DE3)pLysS
T1 sequence (P35557 1-466 isoform P35557-2): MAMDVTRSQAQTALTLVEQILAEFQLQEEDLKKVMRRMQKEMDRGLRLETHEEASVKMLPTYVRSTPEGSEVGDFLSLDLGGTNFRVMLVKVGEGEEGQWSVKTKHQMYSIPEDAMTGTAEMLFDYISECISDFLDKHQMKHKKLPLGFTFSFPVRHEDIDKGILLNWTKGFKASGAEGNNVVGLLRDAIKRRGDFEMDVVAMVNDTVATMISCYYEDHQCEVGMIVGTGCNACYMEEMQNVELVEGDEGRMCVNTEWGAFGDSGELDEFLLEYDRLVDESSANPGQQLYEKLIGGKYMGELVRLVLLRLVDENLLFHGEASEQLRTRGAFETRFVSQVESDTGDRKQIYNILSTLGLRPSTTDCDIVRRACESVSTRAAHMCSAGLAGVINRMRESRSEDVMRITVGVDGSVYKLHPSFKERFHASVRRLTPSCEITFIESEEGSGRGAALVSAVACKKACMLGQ
Experimental: Glucokinase Tandem Enzymatic Assay
Enzymatic activity of human glucokinase (GK) was measured by incubating GK, ATP, and glucose for discrete time periods followed by quenching with EDTA (ethylenediamine tetra-acetic acid). Relative amounts of product glucose-6-phosphate (G6P) were measured by then running a detection assay using G6P dehydrogenase and measuring the conversion of ThioNAD (thio-nicotinamide adenine dinucleotide) to ThioNADH (thio-dihydronicotinamide adenine dinucleotide) at a wavelength of 405 nm. This “uncoupled” enzymatic reaction is denoted as the GK “tandem” assay. Activation of GK by compounds can be assessed using this assay. The GK tandem assay protocol described below was followed using a range of activator compound concentrations from 0 to 100 μM at 5 and 12 mM of glucose. Human full-length glucokinase (GK, 15 nM) was incubated with 5 or 12 mM glucose in a 384 well black microtiter plate with a clear bottom. To initiate the GK reaction, magnesium-ATP (3 mM final concentration) was added to GK in buffer (final buffer conditions of 25 mM HEPES buffer, pH 7.1, containing 1 mM dithiothreitol and 5% DMSO). The total reaction volume was 20 μL. The reaction was allowed to proceed for ten minutes and was then quenched with 5 μL EDTA; 45 mM final). The components of the detection reaction, ThioNAD and G6PDH (glucose-6-phosphate dehydrogenase) (final concentrations of 650 μM and 3.33 Units, respectively), were then added together in a volume of 25 μL, (to give a total volume of 50 μL). Absorbance measurements were made at 405 nm on a SPECTRAMAX® Plus 384 absorbance plate reader (Molecular Devices). Absorbance was read, background glucose-6-phosphate levels were subtracted, after which activation was calculated as a percentage of control activity. Control activity was determined using GK in the presence of vehicle (DMSO), with background glucose-6-phosphate subtracted. Background glucose-6-phosphate was determined by pre-quenching GK with EDTA prior to reaction initiation with ATP.
Expression and Purification of Human GK
Full-length human hepatic GK (untagged) was expressed in BL21 STAR (DE3)pLysS cells (Invitrogen) at 25° C. as described by Mookhtiar et al. (1). The protein was purified essentially as described by Lange (2) with a slight modification. Briefly, cell pellets were lysed via three rounds of freezing and thawing, centrifuged at 15000 g for clarification, and precipitated with 40-65% (NH4)2SO4. The resulting pellet was resuspended in buffer, dialyzed, and applied directly to a Q-SEPHAROSE® (Sigma) column followed by elution with a linear 100-600 mM KCl gradient. GK containing fractions were pooled, dialyzed overnight vs. 25 mM Hepes pH 7.2/1 mM MgCl2/1 mM EDTA/0.1 M KCl/1 mM DTT, then dialyzed again with same buffer with 10% glycerol added.

[2] = system: male DIO (diet-induced obese) C57BL/6J mice; assay: Oral glucose tolerance test (OGTT) in DIO mice; format: in vivo; details: 30 μmol/kg given orally 60 min before 2 g/kg oral glucose; DIO C57BL/6J mice; ΔAUC 0-120 min
Experimental: In Vivo Studies: Oral Glucose Tolerance Test (OGTT)
Oral glucose tolerance tests were carried out on male DIO (diet-induced obese) C57BL/6J mice fed a high fat diet (60% kcal from fat) for 26 weeks prior to experimentation. Mice were fasted overnight before use for experiments. A test compound or vehicle (either: 1) 40% PEG 400+10% Cremophore+50% water or 2) 10% dimethyl acetamide+10% ethanol+10% Cremophore+70% water) was given orally 60 min before oral administration of a glucose solution at a dose of 2 g/kg body weight (oral glucose tolerance test; OGTT). Blood glucose levels were measured from tail-bled samples taken at different time points before and after administration of glucose (time course of 2 hours). A time curve of the blood glucose was generated and the change from baseline area-under-the curve (ΔAUC) from 0-120 min was calculated (the time glucose administration being time zero).

Structure (SMILES)	EC50 [1] [nM]	Emax [1] [%]	Reduction in Glucose AUC at 30 μmol/kg dose [2] [%]
CCOP(C)(=O)Cn1ccc(Nc2ncnc3ccc(OC(C)C)cc23)n1 (racemic) [Example 3]	810	134	
CCOP(C)(=O)Cc1csc(Nc2ncnc3ccc(OC(CF)CF)cc23)n1 (racemic) [Example 6]	390		
CCOP(=O)(Cc1csc(Nc2ncnc3ccc(O[C@@H](C)COC)cc23)n1)OCC [Example 4]		180	
CCOP(=O)(Cc1csc(Nc2ncnc3ccc(OC(C)C)cc23)n1)OCC [Example 2]	136		
CCOP(=O)(Cc1csc(Nc2ncnc3ccc(OC(CF)CF)cc23)n1)OCC [Example 1]	91	145	93
